Laboratory results published in patent US5922557A, “System for stably expressing a high-affinity camp phosphodiesterase and use thereof” (Merck & Co., Inc., priority 1998, dated 1999).
pEC50, pIC50: −log10 of the molar value. “Also recorded” adds a separate entry of the source. Read-outs that look alike come from different tables or passages of the source.

Key:
[1] = system: high-affinity rolipram binding site, rat forebrain membranes; conditions: cited from earlier work
[2] = target: T1, recombinant full-length human PDE IVa (rhPDEIVa) (Homo sapiens, UniProt P27815, M723I); assay: Phosphodiesterase Scintillation Proximity Assay, inhibition of soluble rhPDE IVa (100,000×g supernatant of transfected CHO-K1 cells); assay type: biochemical
T1 construct: a cDNA insert encoding for a full-length human PDE IVa enzyme; made in house; host or cells: CHO-K1 cells, stably transfected (also expressing the prostanoid IP receptor); 100,000xg supernatant of the sonicate
T1 sequence (P27815 whole entry M723I): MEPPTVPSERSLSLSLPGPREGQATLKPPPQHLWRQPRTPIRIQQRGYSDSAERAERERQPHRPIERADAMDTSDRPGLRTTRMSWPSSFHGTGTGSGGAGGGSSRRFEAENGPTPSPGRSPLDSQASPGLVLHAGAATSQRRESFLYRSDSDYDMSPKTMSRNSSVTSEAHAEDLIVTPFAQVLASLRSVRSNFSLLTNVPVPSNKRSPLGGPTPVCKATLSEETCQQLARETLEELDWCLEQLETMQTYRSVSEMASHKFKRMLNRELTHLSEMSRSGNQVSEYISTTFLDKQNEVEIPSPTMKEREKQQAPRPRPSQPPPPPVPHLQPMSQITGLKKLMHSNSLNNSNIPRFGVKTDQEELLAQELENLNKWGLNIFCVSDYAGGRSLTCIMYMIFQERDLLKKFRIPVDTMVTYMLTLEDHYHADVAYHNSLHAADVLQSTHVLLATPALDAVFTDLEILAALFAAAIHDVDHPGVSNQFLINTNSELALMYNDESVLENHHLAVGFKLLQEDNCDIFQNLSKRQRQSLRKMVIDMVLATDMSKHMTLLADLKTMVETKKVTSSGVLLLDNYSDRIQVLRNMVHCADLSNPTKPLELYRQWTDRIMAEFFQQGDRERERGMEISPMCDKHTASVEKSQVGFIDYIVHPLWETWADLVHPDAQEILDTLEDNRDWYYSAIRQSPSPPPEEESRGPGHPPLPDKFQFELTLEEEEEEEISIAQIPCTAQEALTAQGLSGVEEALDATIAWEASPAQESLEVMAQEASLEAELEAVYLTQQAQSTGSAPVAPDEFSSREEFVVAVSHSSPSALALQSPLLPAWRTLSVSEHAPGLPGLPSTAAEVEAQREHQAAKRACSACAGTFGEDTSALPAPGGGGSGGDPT
Protocol: Inhibition of soluble rhPDEIVa by specific inhibitors was examined at 100 nM substrate. Enzyme activity was determined as described in Materials and Methods using the Amersham SPA beads that specifically bind 5'AMP.
Inhibition of soluble rhPDEIVa by specific inhibitors was examined in the presence of 5 mM to 100 mM MgCl2. Enzyme activity was determined as described in Materials and Methods using the Amersham SPA beads that specifically bind 5'AMP in the presence of […] cAMP substrate.

[3] = system: full-length PDE Iva / HPDE IV; conditions: cited from earlier work
[4] = target: T2, FLAG PDE IVA (Homo sapiens, UniProt P27815, M723I); conditions: 150 mM KCl with 3 mg/ml HSA vs HSA alone
T2 sequence (P27815 whole entry M723I): as above
Protocol: PDE activity was measured in a solution containing 50 mM Tris, pH 7.5; 10 mM MgCl2; 1 mM EDTA; and 100 nM (or indicated) 3H-cAMP ([…] final volume) in the presence of varying concentrations of inhibitor. The reaction mixture containing enzyme was incubated for 10 min at 30° C. in 96-well View Plates (PACKARD), and terminated by the addition of 50 μl Phosphodiesterase Scintillation Proximity Assay (SPA) Beads ([…]) containing 18 mM ZnSO4. The amount of 3H-cAMP hydrolysis was determined by counting the plates in a WALLAC 1450 μBeta LSC counter.

[5] = target: T3, FLAG PDE IVAmet330 (Homo sapiens, UniProt P27815, M723I); conditions: KCl and/or HSA
Target sequence in this assay (P27815 332-886 M723I limits assumed): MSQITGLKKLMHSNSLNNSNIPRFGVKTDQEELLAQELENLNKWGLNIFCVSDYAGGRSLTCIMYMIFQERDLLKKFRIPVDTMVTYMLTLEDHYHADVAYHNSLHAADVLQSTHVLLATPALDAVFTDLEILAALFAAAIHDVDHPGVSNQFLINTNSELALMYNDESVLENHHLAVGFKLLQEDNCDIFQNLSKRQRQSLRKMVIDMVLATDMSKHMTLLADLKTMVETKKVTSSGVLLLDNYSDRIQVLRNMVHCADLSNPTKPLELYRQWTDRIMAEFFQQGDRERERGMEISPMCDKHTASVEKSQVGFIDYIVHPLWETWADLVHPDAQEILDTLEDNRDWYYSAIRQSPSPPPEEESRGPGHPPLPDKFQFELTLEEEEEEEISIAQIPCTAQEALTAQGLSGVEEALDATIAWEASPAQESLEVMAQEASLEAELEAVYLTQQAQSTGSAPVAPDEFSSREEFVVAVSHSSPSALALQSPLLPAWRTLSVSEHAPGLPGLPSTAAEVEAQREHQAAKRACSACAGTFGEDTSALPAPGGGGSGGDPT
Protocol: (§1) CHO-K1 cells were lysed by sonication for 10 secs at a power setting of 50% (BRAUNSONIC Model 2000) in an ice cold solution containing 50 mM Tris, pH 7.5; 1 mM EDTA; and 200 μM mercaptoethanol. The soluble and particulate fractions of the cell were obtained by centrifuging the sonicate for 90 min at 100,000×g at 4° C. PDE activity was measured in a solution containing 50 mM Tris, pH 7.5; 10 mM MgCl2 ; 1 mM EDTA; and 100 nM (or indicated) 3H-cAMP (100 ml final volume) in the presence of varying concentrations of inhibitor. The reaction mixture containing enzyme was incubated for 10 min at 30° C. in 96-well View Plates (PACKARD), and terminated by the addition of 50 μl Phosphodiesterase Scintillation Proximity Assay (SPA) Beads ([sequence]) containing 18 mM ZnSO4. The amount of 3H-cAMP hydrolysis was determined by counting the plates in a WALLAC 1450 μBeta LSC counter.
(§2) CHO-K1 cells stably expressing epitope FLAG PDE IV constructs were lysed by sonication for 10 secs at a power setting of 50% (Braunsonic Model 2000) in an ice cold solution containing 50 mM Tris, pH 7.5; 1 mM EDTA; protease inhibitor cocktail (Boehringer, Montreal, QUE). The soluble and particulate fractions of the cell were obtained by centrifuging the sonicate for 90 min at 100,000×g at 40° C.

[6] = system: PKA in CHO-K1 cells stably expressing PDE IVa; assay: Whole-cell cAMP dependent protein kinase (PKA) activity ratio; assay type: cell-based; conditions: with 1 μM PGI2, read-out: apparent EC50 to activate PKA
Protocol: PKA activity ratios were determined as the amount of ^32 P transferred to histone F2B in the presence and absence of cAMP as described in Materials and Methods. Data points represent the fractional PKA activation by incubating cells with the indicated concentrations of inhibitor and […]. Experiments were performed in triplicate. n=3 experiments±SD.
CHO-K1 cells were grown and resuspended as described above except that the Hank's buffer was replaced by a solution containing 0.25M sucrose; 10 mM Tris, pH 7.5; and 0.5 mM EDTA. The cells were preincubated and incubated with 1 μM PGI2 and the indicated compounds at room temperature as described above. The incubations were terminated by the addition of 0.05% Triton X-100 (final) and incubating the cells for 5 min on ice. […] This mixture (final volume 220 μl) was incubated in a waterbath for 30 min at 35° C. and terminated by adding 5 ml of ice cold 5% TCA. The precipatated protein was applied to a Whatman GF/B filter under vacuum and the filter was subsequently washed with 3×5 ml ice cold TCA solution. The amount of -32P incorporation was measured by placing the filters in Aquasol and counting in a BECKMAN LSC 5000. Basal cAMP independent protein kinase activity was determined by the inclusion of 1 μM Protein Kinase A Peptide Inhibitor (19) in the reaction mixture. Maximal cAMP protein kinase activity was determined in the presence of 10 μM cAMP. All determinations were performed in triplicate and activity ratios were calculated as the [(kinase activity in the presence of PDE inhibitor minus cAMP independent kinase activity)/(maximal cAMP kinase activity minus cAMP independent kinase activity)]×100.

[7] = system: CHO-K1 cells stably expressing rhPDE IVa; assay: cells; assay type: cell-based; conditions: for pEC50: CHO-K1, with 10 μM PGI2 (b116 prints 10 FM), read-out: EC50 for elevating cellular cAMP; for effect of preincubation on sensitivity of the enzyme to inhibitors: whole-cell preparation, data not shown
Protocol: Levels of cAMP were measured in CHO-K1 cells stably expressing PDE IVa enzyme as outlined in Materials and Methods.
CHO-K1 cells were plated at a density of 10^6 cells/175 cm^2 containing complete media with 500 μg/ml hygromycin. The flasks were maintained in an incubator at 37° C. with 5.0% CO2 for 72 hr. The media was changed and the cells were allowed to grow overnight. The cells were washed and dissociated from the plate with PBS containing 0.5 mM EDTA. Cellular cAMP content was measured by centrifuging the cell suspension at 150 g×10 min and resuspending the cells in a Hanks buffered salt solution at a density of 0.2×10^6 cells/ml. The cells were preincubated at room temperature for 15 min and then incubated with 10 μM prostaglandin I2 (PGI2) and the indicated compound for an additional 10 min. Basal cAMP levels were determined by incubating the cells in 0.1% DMSO. The incubations were terminated by the addition of HCl (0.1N final) and the cells measured for cAMP.
Determinations of whole-cell cAMP content were performed by incubating 100 μl reconstituted rabbit anti-succinyl cAMP serum with 100 μl of the whole-cell reaction or known cAMP standard and 30 pmol of 125I-cAMP TME in a […]™ well (300 μl final volume) at room temperature for 18 h. Total cpm (Bo) was determined in the absence of sample or cAMP standard. The reaction mixture was then aspirated out of the well, and individual wells were counted in a BECKMAN LS 6000SC with the window open from 10-999 for 1 min. The data were expressed as %B/Bo=[(standard or sample cpm--non-specific cpm)/(Bo cpm-non-specific cpm)]×100. Non-specific cpm were determined by incubating only the 125I-cAMP TME with assay buffer (50 mM acetate; pH 5.8) in the ScintiStrip™ well. All determinations were performed in triplicate.

[8] = system: catalytic portion of PDE IV; conditions: UCR1 and UCR2 deleted; cited from earlier work
[9] = system: human neutrophils; assay: Whole-cell cAMP elevation in human neutrophils; assay type: cell-based; conditions: vs RS 14203 and (R)-rolipram; data not presented
[10] = system: U937 cells; assay: Whole-cell cAMP elevation in U937 cells; assay type: cell-based, human; conditions: vs RS 14203 and (R)-rolipram; data not presented
[11] = system: eosinophils from guinea pigs; assay: Whole-cell cAMP elevation in guinea pig eosinophils; assay type: cell-based; conditions: vs RS 14203 and (R)-rolipram; data not presented
[12] = system: FLAG PDE IVAmet330; conditions: truncated vs full-length enzyme
Protocol: as §1, §2

[13] = system: HL-60 cells; assay: Whole-cell cAMP elevation in HL-60 cells; assay type: cell-based; conditions: vs RS 14203 and (R)-rolipram; data not presented
[14] = system: HSA; assay: [3H](R)-rolipram binding to HSA; design: species or system human; conditions: presence or absence of 150 mM KCl
Protocol: (§3) The filters were quickly washed with an ice-cold solution of 50 mM Tris; pH 7.5. […] Non-specific binding amounted to less than 5% of the total measured binding activity.

[15] = target: rhPDE IVa (Homo sapiens, UniProt P27815, M723I)
rhPDE IVa, sequence (P27815 whole entry M723I): as the sequence (P27815 whole entry M723I) above
Protocol: Shown is the saturable binding to the soluble rhPDE IVa enzyme with increasing concentrations of ligand from 0.2 to 100 nM (panal A).
(§4) The filters were quickly washed with an ice-cold solution of 50 mM Tris; pH 7.5.

[16] = target: T2, FLAG PDE IVA
Protocol: Each point represents the mean of 3 separate experiments performed in duplicate±SEM. […] Each point represents the average of 3 separate experiments.
CHO-K1 cells stably expressing epitope FLAG PDE IV constructs were lysed by sonication for 10 secs at a power setting of 50% (Braunsonic Model 2000) in an ice cold solution containing 50 mM Tris, pH 7.5; 1 mM EDTA; protease inhibitor cocktail (Boehringer, Montreal, QUE). The soluble and particulate fractions of the cell were obtained by centrifuging the sonicate for 90 min at 100,000×g at 40° C. Twenty-five ml. […] The affinity matrix was washed with column buffer until all unbound protein was eluted from the column as determined with a UV-2 flow cell. Bound material was eluted with column buffer containing 0.5 mg/ml. FLAG peptide at a flow rate of 2 ml/min.
as §4

[17] = target: T3, FLAG PDE IVAmet330; assay type: binding; design: made in house; conditions: 0.2 to 100 nM [^3 H](R)-rolipram
Target sequence in this assay (P27815 332-886 M723I): as the sequence (P27815 332-886 M723I limits assumed) above
Protocol: CHO-K1 cells stably expressing epitope FLAG PDE IV constructs were lysed by sonication for 10 secs at a power setting of 50% (Braunsonic Model 2000) in an ice cold solution containing 50 mM Tris, pH 7.5; 1 mM EDTA; protease inhibitor cocktail (Boehringer, Montreal, QUE). The soluble and particulate fractions of the cell were obtained by centrifuging the sonicate for 90 min at 100,000×g at 40° C. […] The affinity matrix was washed with column buffer until all unbound protein was eluted from the column as determined with a UV-2 flow cell. Bound material was eluted with column buffer containing 0.5 mg/ml. FLAG peptide at a flow rate of 2 ml/min.
as §3

[18] = target: T1, recombinant full-length human PDE IVa (rhPDEIVa); assay: Phosphodiesterase Scintillation Proximity Assay, inhibition of soluble rhPDE IVa (100,000×g supernatant of transfected CHO-K1 cells); assay type: biochemical; conditions: broken-cell preparation; data not shown

For COc1ccc(C2CNC(=O)C2)cc1OC1CCCC1 (racemic) [(±)[3H] rolipram], the “increase in high-affinity binding” value ([1]; 100 mM NaCl and 1 mM MgCl2) is given as 20 fold and the Bmax ([1]; rat forebrain membranes) is given as 19.3 pmol/g rat forebrain.

In the case of COc1ccc([C@@H]2CNC(=O)C2)cc1OC1CCCC1 [(R)-rolipram], the “effect of assay solution osmolality on rolipram sensitivity of the enzyme” value [2] is given as “no effect upon the rolipram sensitivity of the enzyme”, the “inhibition of cAMP hydrolytic activity in the stable clones” value [2] is given as “completely inhibitable” and the “Hill co-effecient for inhibition of HPDE IV catalytic activity” value [3] is given as 0.43. The “additional increase in enzyme sensitivity to (R)-rolipram” value [4] was 3 fold, the “effect of assay conditions on sensitivity of FLAG PDE IVAmet330 to (R)-rolipram” value [5] was “unaffected” and the pEC50 ([6]; CHO-K1) was 6.77. For the same compound, the pEC50 [7] was 6.31 and the “concentration required for inhibition of catalytic portion” value [8] was “at least a micromolar concentration”.

In the case of COc1ccc([C@H]2CNC(=O)C2)cc1OC1CCCC1 [(S)-rolipram], the pEC50 ([6]; CHO-K1) was 6.00.

With COc1ccc([C@H](Cc2ccncc2)c2ccccc2)cc1OC1CCCC1 [CDP 840] the “effect of increased salt / ionic strength on inhibitory potency (IC50)” value [2] was “not substantially affected; also recorded: not appreciably affected; also recorded: not affected by an increase of ionic strength; also recorded: not affected by the increases in assay buffer ionic strength”, the “relative potency against recombinant full-length PDE IVa enzyme” value [2] was “as potent as RS 14203 and more potent than (R)-rolipram” and the pIC50 ([2]; read-out: IC50 for inhibition of soluble PDE IVa activity) was 8.05. The “relative potency at elevating whole-cell cAMP” value [9] was “consistently less potent than RS 14203 and (R)-rolipram”, the “relative potency at elevating whole-cell cAMP” value [10] was “consistently less potent than RS 14203 and (R)-rolipram” and the “relative potency at elevating whole-cell cAMP” value [11] was “consistently less potent than RS 14203 and (R)-rolipram”. For the same compound, the “discrimination between high- and low-affinity states of the enzyme” value [12] was “do not discriminate between the two affinity states of the enzyme”, the pEC50 [6] was 6.50 and the “relative potency at elevating whole-cell cAMP” value [13] was “consistently less potent than RS 14203 and (R)-rolipram”. For the same compound, the “relative potency / response in elevating whole-cell cAMP” value ([7]; with PGI2) was “least potent of the compounds tested, and a maximal "plateau" response was not obtained”.

With O=[N+]([O-])c1cccc(-c2cc(Cc3ccncc3)cc3cccnc23)c1 [RS 14203] the pIC50 ([2]; 100 nM cAMP substrate, read-out: IC50 for inhibition of soluble PDE IVa activity) was 8.05, the pIC50 ([2]; 5 mM MgCl2, read-out: IC50, inhibition of soluble rhPDEIVa) was 6.85 and the pIC50 ([2]; 100 mM MgCl2, read-out: IC50, inhibition of soluble rhPDEIVa) was 9.30. The “effect of increased salt / ionic strength on inhibitory potency (IC50)” value ([2]; increasing MgCl2 or other salt in assay buffer) was “became more potent; also recorded: salt dependent shift in IC50 from low to high affinity”, the pEC50 ([6]; CHO-K1) was 8.00 and the pEC50 [7] was 7.57. The “cellular cAMP reached” value ([7]; with PGI2, from 0.2 pmol cAMP/10^4 cells) was 3.6 pmols cAMP/10^4 cells.

With COc1ccc([C@@H]2CNC(=O)C2)cc1OC1CCCC1 [[^3 H](R)-rolipram] the “specific binding to HSA” value [14] was “No specific binding”, the Bmax ([15]; 150 mM KCl) was 0.47 pmol/20 μg prot and the “Hill coefficient of binding” value ([15]; 300 mM KCl) was 2. For the same compound, the Bmax ([15]; absence of added KCl) was 0.16 pmol/20 μg prot, the Stochiometry ([16]; 0 mM KCl) was 0.02 (0.0) fmol [^3 H](R)-Rolipram/fmol P and the Bmax ([16]; 0 mM KCl + 3 mg/ml HSA) was 150 (47) fmol [^3 H](R)-rolipram. The Stochiometry ([16]; 0 mM KCl + 3 mg/ml HSA) was 0.10 (0.03) fmol [^3 H](R)-Rolipram/fmol P, the Bmax ([16]; 3 mg/ml HSA) was 150±47 fmol/1.6 pmol enzyme and the “increase in Bmax” value ([16]; 3 mg/ml HSA) was 5 fold. The Bmax ([16]; 150 mM KCl) was 63 (16) fmol [^3 H](R)-rolipram, the Stochiometry ([16]; 150 mM KCl) was 0.04 (0.01) fmol [^3 H](R)-Rolipram/fmol P and the Bmax ([16]; 150 mM KCl (text)) was 63±16 fmol/1.6 pmol enzyme. The Bmax ([16]; 150 mM KCl + 3 mg/ml HSA) was 240 (37) fmol [^3 H](R)-rolipram, the Stochiometry ([16]; 150 mM KCl + 3 mg/ml HSA) was 0.15 (0.03) fmol [^3 H](R)-Rolipram/fmol P and the Bmax ([16]; 150 mM KCl + 3 mg/ml HSA (text)) was 240 fmol/1.6 pmol purified enzyme. The “saturable high-affinity binding to truncated enzyme” value [17] was “did not exhibit any saturable binding; also recorded: does not display any saturable high-affinity [^3 H](R)-rolipram binding”.

For C=C1[C@@H](O)[C@@H]2O[C@]3(CC[C@H](/C=C/[C@@H](C)[C@@H]4CC(C)=C[C@@]5(O[C@H](C[C@@](C)(O)C(=O)O)CC[C@H]5O)O4)O3)CC[C@H]2O[C@@H]1[C@@H](O)C[C@H](C)[C@H]1O[C@@]2(CCCCO2)CC[C@H]1C [okadaic acid], the “effect of preincubation on sensitivity of the enzyme to inhibitors” value (“effect of preincubation … to inhibitors” for short) [18] was “no effect on the sensitivity of the enzyme to inhibitors” and the “effect of preincubation … to inhibitors” value [7] was “no effect on the sensitivity of the enzyme to inhibitors”.

With CO[C@H]([C@H](O)CC(=O)[C@@H](C)[C@@H](O)CC[C@@H](C)[C@@H]1O[C@]2(CC[C@@H](C)[C@H](CC[C@H](C)C(C)=O)O2)CC[C@@H]1C)[C@H](OC(=O)C[C@@H](O)C1=C(C)C(=O)OC1=O)C(C)C [tautomycin] the “effect of preincubation … to inhibitors” value [18] was “no effect on the sensitivity of the enzyme to inhibitors” and the “effect of preincubation … to inhibitors” value [7] was “no effect on the sensitivity of the enzyme to inhibitors”.
